Experimental data as given in US20110173718A1, “HERBICIDE TOLERANT PLANTS” (SYNGENTA CROP PROTECTION, INC., priority 2008, published 2011).

Test system: weeds
Assay: Glasshouse weed control by HST/HPPD (mesotrione) mixtures, post-emergence
Format: in vivo
Conditions: post-emergence; for % damage, 1 g ai ha^−1 mesotrione / % damage, no-mesotrione: 14 DAT; for colby: difference to Colby expectation
Procedure: Weed seeds are planted out in trays containing suitable soil (for example 50% peat, 50% John Innes soil no 3) and grown in the glass house conditions under 24-27° C. day; 18-21° C. night and approximately a 14 h (or longer in UK summer) photoperiod. Humidity is ˜65% and light levels up to 2000 μmol/m^2 at bench level. Trays are sprayed with test chemicals dissolved in water with 0.2-0.25% X-77 surfactant and sprayed from a boom on a suitable track sprayer moving at about 2 mph in a suitable track sprayer (for example a DeVries spray chamber with the nozzle about 2 inches from the plant tops). Spray volume is suitably 500-1000 l/ha. Sprays are carried out both pre-emergence and over small plants at about 7-12 d post-emergence
Plants are assessed 14 DAT and herbicidal damage is scored on a scale from 0 to 100%. The HST inhibitor compound 2.30 (designated compound A in table 16 and 17), haloxydine (compound 1.1) and compound 2.13 (designated compound AE in tables 16 and 17) are sprayed at rates between 0 and 500 g/ha.

[1] = ALOMY, 16 g/ha + 1 g ai/ha mesotrione
[2] = ALOMY, 31 g/ha + 1 g ai/ha mesotrione
[3] = ALOMY, 63 g/ha + 1 g ai/ha mesotrione
[4] = ALOMY, 125 g/ha + 1 g ai/ha mesotrione
[5] = ALOMY, 250 g/ha + 1 g ai/ha mesotrione
[6] = ALOMY, 500 g/ha + 1 g ai/ha mesotrione
[7] = ECHCG, 16 g/ha + 1 g ai/ha mesotrione
[8] = ECHCG, 31 g/ha + 1 g ai/ha mesotrione
[9] = ECHCG, 63 g/ha + 1 g ai/ha mesotrione
[10] = ECHCG, 125 g/ha + 1 g ai/ha mesotrione
[11] = ECHCG, 250 g/ha + 1 g ai/ha mesotrione
[12] = ECHCG, 500 g/ha + 1 g ai/ha mesotrione
[13] = SETFA, 16 g/ha + 1 g ai/ha mesotrione
[14] = SETFA, 31 g/ha + 1 g ai/ha mesotrione
[15] = SETFA, 63 g/ha + 1 g ai/ha mesotrione
[16] = SETFA, 125 g/ha + 1 g ai/ha mesotrione
[17] = SETFA, 250 g/ha + 1 g ai/ha mesotrione
[18] = SETFA, 500 g/ha + 1 g ai/ha mesotrione

Q: Which results are given for `O=c1c(Cl)c(F)[nH]c(F)c1Cl` [Haloxidine]?
A: % damage, 1 g ai ha^−1 mesotrione [1]: 23%; colby [1]: 10; % damage, no-mesotrione (ALOMY, 16 g/ha): 13%; % damage, 1 g ai ha^−1 mesotrione [2]: 33%; colby [2]: 7; % damage, no-mesotrione (ALOMY, 31 g/ha): 27%; % damage, 1 g ai ha^−1 mesotrione [3]: 68%; colby [3]: 15; % damage, no-mesotrione (ALOMY, 63 g/ha): 53%; % damage, 1 g ai ha^−1 mesotrione [4]: 83%; colby [4]: 5; % damage, no-mesotrione (ALOMY, 125 g/ha): 78%; % damage, 1 g ai ha^−1 mesotrione [5]: 92%; colby [5]: 2; % damage, no-mesotrione (ALOMY, 250 g/ha): 90%; % damage, 1 g ai ha^−1 mesotrione [6]: 95%; colby [6]: 0; % damage, no-mesotrione (ALOMY, 500 g/ha): 95%; % damage, 1 g ai ha^−1 mesotrione [7]: 57%; colby [7]: 18; % damage, no-mesotrione (ECHCG, 16 g/ha): 33%; % damage, 1 g ai ha^−1 mesotrione [8]: 67%; colby [8]: 11; % damage, no-mesotrione (ECHCG, 31 g/ha): 52%; % damage, 1 g ai ha^−1 mesotrione [9]: 75%; colby [9]: 15; % damage, no-mesotrione (ECHCG, 63 g/ha): 57%; % damage, 1 g ai ha^−1 mesotrione [10]: 78%; colby [10]: 6; % damage, no-mesotrione (ECHCG, 125 g/ha): 70%; % damage, 1 g ai ha^−1 mesotrione [11]: 97%; colby [11]: 12; % damage, no-mesotrione (ECHCG, 250 g/ha): 83%; % damage, 1 g ai ha^−1 mesotrione [12]: 100%; colby [12]: 2; % damage, no-mesotrione (ECHCG, 500 g/ha): 98%; % damage, 1 g ai ha^−1 mesotrione [13]: 27%; colby [13]: −15; % damage, no-mesotrione (SETFA, 16 g/ha): 42%; % damage, 1 g ai ha^−1 mesotrione [14]: 82%; colby [14]: 13; % damage, no-mesotrione (SETFA, 31 g/ha): 68%; % damage, 1 g ai ha^−1 mesotrione [15]: 92%; colby [15]: 12; % damage, no-mesotrione (SETFA, 63 g/ha): 80%; % damage, 1 g ai ha^−1 mesotrione [16]: 97%; colby [16]: 3; % damage, no-mesotrione (SETFA, 125 g/ha): 93%; % damage, 1 g ai ha^−1 mesotrione [17]: 100%; colby [17]: 0; % damage, no-mesotrione (SETFA, 250 g/ha): 100%; % damage, 1 g ai ha^−1 mesotrione [18]: 100%; colby [18]: 0; % damage, no-mesotrione (SETFA, 500 g/ha): 100%

Q: With `O=c1c(-c2c(F)ccc(F)c2Cl)c(O)c2cccnc2n1CC(F)F` [Compound 2.13] as the compound, how does the “% damage, 1 g ai ha^−1 mesotrione” value [1] read?
A: Its value is 0%.

Q: What about the colby [1] of the same compound?
A: Its colby is 0.

Q: And the “% damage, no-mesotrione” value (ALOMY, 16 g/ha)?
A: Its value is 0%.

Q: And the “% damage, 1 g ai ha^−1 mesotrione” value [2]?
A: Its value is 2%.

Q: What about the colby [2] of the same compound?
A: Its colby is 2.

Q: And the “% damage, no-mesotrione” value (ALOMY, 31 g/ha)?
A: The value was 0%.

Q: What about the “% damage, 1 g ai ha^−1 mesotrione” value [3] of the same compound?
A: Its value is 3%.

Q: What about the colby [3] of the same compound?
A: Its colby is 3.

Q: And the “% damage, no-mesotrione” value (ALOMY, 63 g/ha)?
A: The value was 0%.

Q: And the “% damage, 1 g ai ha^−1 mesotrione” value [4]?
A: Its value is 0%.

Q: And the colby [4]?
A: Its colby is 0.

Q: What about the “% damage, no-mesotrione” value (ALOMY, 125 g/ha) of the same compound?
A: The value was 0%.

Q: And the “% damage, 1 g ai ha^−1 mesotrione” value [5]?
A: The value was 3%.

Q: And the colby [5]?
A: The colby was 2.

Q: What about the “% damage, no-mesotrione” value (ALOMY, 250 g/ha) of the same compound?
A: Its value is 2%.

Q: And the “% damage, 1 g ai ha^−1 mesotrione” value [6]?
A: The value was 5%.

Q: What about the colby [6] of the same compound?
A: The colby was −2.

Q: And the “% damage, no-mesotrione” value (ALOMY, 500 g/ha)?
A: Its value is 7%.

Q: What about the “% damage, 1 g ai ha^−1 mesotrione” value [7] of the same compound?
A: Its value is 5%.

Q: What about the colby [7] of the same compound?
A: Its colby is −3.

Q: And the “% damage, no-mesotrione” value (ECHCG, 16 g/ha)?
A: The value was 0%.

Q: And the “% damage, 1 g ai ha^−1 mesotrione” value [8]?
A: The value was 5%.

Q: And the colby [8]?
A: The colby was −3.

Q: And the “% damage, no-mesotrione” value (ECHCG, 31 g/ha)?
A: The value was 0%.

Q: And the “% damage, 1 g ai ha^−1 mesotrione” value [9]?
A: The value was 8%.

Q: What about the colby [9] of the same compound?
A: Its colby is 0.

Q: And the “% damage, no-mesotrione” value (ECHCG, 63 g/ha)?
A: The value was 0%.

Q: And the “% damage, 1 g ai ha^−1 mesotrione” value [10]?
A: Its value is 15%.

Q: What about the colby [10] of the same compound?
A: Its colby is 7.

Q: What about the “% damage, no-mesotrione” value (ECHCG, 125 g/ha) of the same compound?
A: Its value is 0%.

Q: What about the “% damage, 1 g ai ha^−1 mesotrione” value [11] of the same compound?
A: Its value is 22%.

Q: And the colby [11]?
A: Its colby is 13.

Q: And the “% damage, no-mesotrione” value (ECHCG, 250 g/ha)?
A: Its value is 0%.

Q: And the “% damage, 1 g ai ha^−1 mesotrione” value [12]?
A: The value was 20%.

Q: And the colby [12]?
A: The colby was 12.

Q: What about the “% damage, no-mesotrione” value (ECHCG, 500 g/ha) of the same compound?
A: The value was 0%.

Q: What about the “% damage, 1 g ai ha^−1 mesotrione” value [13] of the same compound?
A: Its value is 0%.

Q: What about the colby [13] of the same compound?
A: Its colby is 0.

Q: What about the “% damage, no-mesotrione” value (SETFA, 16 g/ha) of the same compound?
A: The value was 0%.

Q: What about the “% damage, 1 g ai ha^−1 mesotrione” value [14] of the same compound?
A: Its value is 0%.

Q: And the colby [14]?
A: Its colby is 0.

Q: What about the “% damage, no-mesotrione” value (SETFA, 31 g/ha) of the same compound?
A: The value was 0%.

Q: What about the “% damage, 1 g ai ha^−1 mesotrione” value [15] of the same compound?
A: The value was 0%.

Q: What about the colby [15] of the same compound?
A: The colby was 0.

Q: And the “% damage, no-mesotrione” value (SETFA, 63 g/ha)?
A: Its value is 0%.

Q: And the “% damage, 1 g ai ha^−1 mesotrione” value [16]?
A: Its value is 0%.

Q: What about the colby [16] of the same compound?
A: The colby was 0.

Q: What about the “% damage, no-mesotrione” value (SETFA, 125 g/ha) of the same compound?
A: The value was 0%.

Q: What about the “% damage, 1 g ai ha^−1 mesotrione” value [17] of the same compound?
A: Its value is 0%.

Q: And the colby [17]?
A: The colby was 0.

Q: What about the “% damage, no-mesotrione” value (SETFA, 250 g/ha) of the same compound?
A: Its value is 0%.

Q: And the “% damage, 1 g ai ha^−1 mesotrione” value [18]?
A: Its value is 0%.

Q: What about the colby [18] of the same compound?
A: The colby was 0.

Q: And the “% damage, no-mesotrione” value (SETFA, 500 g/ha)?
A: The value was 0%.
